Reference: PubChem BioAssay AID2060361 (Molecular Pharmacology Branch, DTP, NCI, 2025)
pIC50: −log10 of the molar value.

Tested on: 463943-066-T-J2-PDC tumor spheroids with HUVEC/MSC, viability
Test: Anticancer human tumor 463943-066-T-J2-PDC patient-derived colon adenocarcinoma cell line growth inhibition [TAK]
Settings: for pIC50: curve of first compound; for viability, T/C: stronger effect = lower value
Description: Combinatorial screen of targeted agents with TAK-243 and ipatasertib in multi-cell type tumor spheroids
A high-throughput screen of multi-cell type tumor spheroids was designed to identify active combinations of targeted small molecules and TAK-243 or ipatasertib. Complex spheroids include a stromal component modeled by human endothelial cells (HUVEC) and fibroblasts modeled by human mesenchymal stem cells (MSCs). The concentration ranges selected for each drug and investigational agent were based upon clinically achievable concentrations if the clinical Cmax of the agent was known.
Compounds. The drugs and investigational agents: TAK-243 (785004), ipatasertib (767898), everolimus (733504), selumetinib (741078), bortezomib (756655), trametinib (758246), ixazomib (758254), vemurafenib (761431), dabrafenib (764134), sapanisertib (764658), alpelisib (765974), and copanlisib (816437), were obtained from the National Cancer Institute (NCI) Developmental Therapeutics Program Chemical Repository. The FDA-approved anticancer drug set is available from the NCI Developmental Therapeutics Program. […] The stock solutions were prepared in dimethyl sulfoxide (DMSO, Sigma-Aldrich, St. Louis, MO, cat. D2650) at 800-fold the tested concentration and stored at -70 degrees C prior to their use. All drugs and investigational agents were tested over a range starting from a high concentration at or near the clinical Cmax and decreasing in half-log increments. If the clinical Cmax for an agent had not been determined, the highest concentration tested was 10 microM.
NCI60 Cell Culture. NCI60 cell lines were obtained from the NCI Developmental Therapeutics Program Tumor Repository. For each lot of cells, the Repository performed Applied Biosystems AmpFLSTR Identifiler testing with PCR amplification to confirm consistency with the published Identifier STR profile for each cell line. Cells were kept in continuous culture for no more than 20 passages. The optimal seeding densities for each of the cell lines at each time point assessed were determined prior to performing the concentration response studies. Briefly, the NCI60 human tumor lines were grown as monolayers in RPMI 1640 medium supplemented with 10% FBS and 2 mmol/L L-glutamine.
An additional 2 lines were from the NCI60 cell line panel including melanomas, MALME-3M and SK-MEL-2. Pooled donor human umbilical vein endothelial cells (HUVEC, Lonza, cat. CC-2519) and human mesenchymal stem cells (hMSC, Lonza, cat. PT-2501) were purchased from Lonza (Walkersville, MD).
PDMR cell lines were grown in complete medium (DC medium): Dulbecco's modified Eagle's medium (DMEM)/F12 supplemented with 5% fetal bovine serum (FBS), 2 mM L-glutamine, 100 U/mL penicillin and 100 µg/ml streptomycin, 0.4 µg/ml hydrocortisone, 10 ng/ml epidermal growth factor (EGF) recombinant human protein, 24 µg/mL adenine, and 0.1 mg/mL primocin. During culture from frozen stock vials, PDMR cells were cultured in the same medium containing 10 µM Y-27632 (see Table 3). The PDCs were cultured in complete DMEM/F12 media without 10 microM Y-27632 dihydrochloride for at least two passages prior to the screen. The pooled donor HUVEC and hMSC were cultured in endothelial cell growth medium 2 (PromoCell, Heidelberg, Germany, cat. C-22011) and mesenchymal stem cell growth medium 2 (PromoCell, cat. C-28009), respectively. For all experiments, HUVEC and hMSC were used at passages </=5.
For the pre-screen, cell seeding densities were determined from a titration spanning the range from 5,000 to 313 cells per well. The mct-spheroids including 60% malignant cells, 25% HUVEC and 15% MSC dispensed as a mixture into U-bottom Ultra-Low Attachment 384-well plates (Corning, NY)
High-throughput Drug Combination Screening.
Prior to their inoculation into 384-well plates, malignant cells, HUVEC, and hMSC were removed from T flasks using TrypLE express (Thermo Fisher Scientific, cat. 12605036) and harvested by centrifugation for 5 min at 233 x g. […]

[1] = second compound 0.3 µM, first compound 0.0316 µM
[2] = second compound 0.3 µM, first compound 0.1 µM
[3] = second compound 0.3 µM, first compound 0.316 µM
[4] = second compound 0.3 µM, first compound 1 µM
[5] = second compound 0.3 µM, first compound 3.16 µM
[6] = second compound 0.3 µM, first compound 10 µM
[7] = second compound 0.949 µM, first compound 0.0316 µM
[8] = second compound 0.949 µM, first compound 0.1 µM
[9] = second compound 0.949 µM, first compound 0.316 µM
[10] = second compound 0.949 µM, first compound 1 µM
[11] = second compound 0.949 µM, first compound 3.16 µM
[12] = second compound 0.949 µM, first compound 10 µM
[13] = second compound 3 µM, first compound 0.0316 µM
[14] = second compound 3 µM, first compound 0.1 µM
[15] = second compound 3 µM, first compound 0.316 µM
[16] = second compound 3 µM, first compound 1 µM
[17] = second compound 3 µM, first compound 3.16 µM
[18] = second compound 3 µM, first compound 10 µM
[19] = second compound 9.49 µM, first compound 0.0316 µM
[20] = second compound 9.49 µM, first compound 0.1 µM
[21] = second compound 9.49 µM, first compound 0.316 µM
[22] = second compound 9.49 µM, first compound 1 µM
[23] = second compound 9.49 µM, first compound 3.16 µM
[24] = second compound 9.49 µM, first compound 10 µM
[25] = second compound 30 µM, first compound 0.0316 µM
[26] = second compound 30 µM, first compound 0.1 µM
[27] = second compound 30 µM, first compound 0.316 µM
[28] = second compound 30 µM, first compound 1 µM
[29] = second compound 30 µM, first compound 3.16 µM
[30] = second compound 30 µM, first compound 10 µM
[31] = second compound 0.3 µM, first compound 0.000316 µM
[32] = second compound 0.3 µM, first compound 0.001 µM
[33] = second compound 0.3 µM, first compound 0.00316 µM
[34] = second compound 0.3 µM, first compound 0.01 µM
[35] = second compound 0.949 µM, first compound 0.000316 µM
[36] = second compound 0.949 µM, first compound 0.001 µM
[37] = second compound 0.949 µM, first compound 0.00316 µM
[38] = second compound 0.949 µM, first compound 0.01 µM
[39] = second compound 3 µM, first compound 0.000316 µM
[40] = second compound 3 µM, first compound 0.001 µM
[41] = second compound 3 µM, first compound 0.00316 µM
[42] = second compound 3 µM, first compound 0.01 µM
[43] = second compound 9.49 µM, first compound 0.000316 µM
[44] = second compound 9.49 µM, first compound 0.001 µM
[45] = second compound 9.49 µM, first compound 0.00316 µM
[46] = second compound 9.49 µM, first compound 0.01 µM
[47] = second compound 30 µM, first compound 0.000316 µM
[48] = second compound 30 µM, first compound 0.001 µM
[49] = second compound 30 µM, first compound 0.00316 µM
[50] = second compound 30 µM, first compound 0.01 µM
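Further: spheroids exposed to drugs for seven days.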
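Wherever viability, T/C is given: 100% = DMSO vehicle control wells.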

CC(C)(C)c1nc(-c2cccc(NS(=O)(=O)c3c(F)cccc3F)c2F)c(-c2ccnc(N)n2)s1 + CC(C)NCC(C(=O)N1CCN(c2ncnc3c2C(C)CC3O)CC1)c1ccc(Cl)cc1
pIC50 (second compound 0.3 µM): < 5.00
pIC50 (second compound 0.949 µM): < 5.00
pIC50 (second compound 3 µM): < 5.00
pIC50 (second compound 9.49 µM): < 5.00
pIC50 (second compound 30 µM): < 5.00
viability, T/C [1]: 110%
viability, T/C [2]: 111%
viability, T/C [3]: 107%
viability, T/C [4]: 112%
viability, T/C [5]: 100%
viability, T/C [6]: 92.5%
viability, T/C [7]: 115%
viability, T/C [8]: 111%
viability, T/C [9]: 105%
viability, T/C [10]: 111%
viability, T/C [11]: 103%
viability, T/C [12]: 88.3%
viability, T/C [13]: 99%
viability, T/C [14]: 109%
viability, T/C [15]: 92.2%
viability, T/C [16]: 102%
viability, T/C [17]: 110%
viability, T/C [18]: 101%
viability, T/C [19]: 100%
viability, T/C [20]: 111%
viability, T/C [21]: 99.2%
viability, T/C [22]: 109%
viability, T/C [23]: 107%
viability, T/C [24]: 104%
viability, T/C [25]: 91%
viability, T/C [26]: 98.6%
viability, T/C [27]: 100%
viability, T/C [28]: 97.2%
viability, T/C [29]: 104%
viability, T/C [30]: 91.1%

CC(C)CC(NC(=O)CNC(=O)c1cc(Cl)ccc1Cl)B1OC(=O)CC(CC(=O)O)(C(=O)O)O1 (stereo not given) + CC(C)NCC(C(=O)N1CCN(c2ncnc3c2C(C)CC3O)CC1)c1ccc(Cl)cc1
pIC50 (second compound 0.3 µM): < 7.00
pIC50 (second compound 0.949 µM): < 7.00
pIC50 (second compound 3 µM): < 7.00
pIC50 (second compound 9.49 µM): < 7.00
pIC50 (second compound 30 µM): < 7.00
viability, T/C [31]: 117%
viability, T/C [32]: 107%
viability, T/C [33]: 106%
viability, T/C [34]: 101%
viability, T/C [1]: 88.8%
viability, T/C [2]: 80.5%
viability, T/C [35]: 98.3%
viability, T/C [36]: 102%
viability, T/C [37]: 99%
viability, T/C [38]: 105%
viability, T/C [7]: 86.9%
viability, T/C [8]: 72.6%
viability, T/C [39]: 116%
viability, T/C [40]: 98.9%
viability, T/C [41]: 95.4%
viability, T/C [42]: 98.5%
viability, T/C [13]: 83.5%
viability, T/C [14]: 80.7%
viability, T/C [43]: 91.4%
viability, T/C [44]: 123%
viability, T/C [45]: 97.2%
viability, T/C [46]: 95.2%
viability, T/C [19]: 78.1%
viability, T/C [20]: 85.7%
viability, T/C [47]: 93.8%
viability, T/C [48]: 99.1%
viability, T/C [49]: 90.6%
viability, T/C [50]: 90.4%
viability, T/C [25]: 81.3%
viability, T/C [26]: 71.7%

CC(C)n1nc(-c2ccc3oc(N)nc3c2)c2c(N)ncnc21 + CC(C)NCC(C(=O)N1CCN(c2ncnc3c2C(C)CC3O)CC1)c1ccc(Cl)cc1
pIC50 (second compound 0.3 µM): < 7.00
pIC50 (second compound 0.949 µM): < 7.00
pIC50 (second compound 3 µM): < 7.00
pIC50 (second compound 9.49 µM): < 7.00
pIC50 (second compound 30 µM): < 7.00
viability, T/C [31]: 112%
viability, T/C [32]: 102%
viability, T/C [33]: 105%
viability, T/C [34]: 95.2%
viability, T/C [1]: 79.6%
viability, T/C [2]: 74.1%
viability, T/C [35]: 100%
viability, T/C [36]: 97.2%
viability, T/C [37]: 81.8%
viability, T/C [38]: 78.6%
viability, T/C [7]: 82.7%
viability, T/C [8]: 78.5%
viability, T/C [39]: 95.2%
viability, T/C [40]: 106%
viability, T/C [41]: 93.4%
viability, T/C [42]: 89.8%
viability, T/C [13]: 85.3%
viability, T/C [14]: 78.2%
viability, T/C [43]: 103%
viability, T/C [44]: 91.6%
viability, T/C [45]: 91.4%
viability, T/C [46]: 88.3%
viability, T/C [19]: 82.6%
viability, T/C [20]: 74.1%
viability, T/C [47]: 86.1%
viability, T/C [48]: 106%
viability, T/C [49]: 83.2%
viability, T/C [50]: 89%
viability, T/C [25]: 82%
viability, T/C [26]: 74.6%

CCCS(=O)(=O)Nc1ccc(F)c(C(=O)c2c[nH]c3ncc(-c4ccc(Cl)cc4)cc23)c1F + CC(C)NCC(C(=O)N1CCN(c2ncnc3c2C(C)CC3O)CC1)c1ccc(Cl)cc1
pIC50 (second compound 0.3 µM): < 4.00
pIC50 (second compound 0.949 µM): < 4.00
pIC50 (second compound 3 µM): < 4.00
pIC50 (second compound 9.49 µM): < 4.00
pIC50 (second compound 30 µM): < 4.00
viability, T/C [3]: 105%
viability, T/C [4]: 102%
viability, T/C [5]: 104%
viability, T/C [6]: 99.7%
viability, T/C (second compound 0.3 µM, first compound 31.6 µM): 125%
viability, T/C (second compound 0.3 µM, first compound 100 µM): 105%
viability, T/C [9]: 108%
viability, T/C [10]: 104%
viability, T/C [11]: 103%
viability, T/C [12]: 106%
viability, T/C (second compound 0.949 µM, first compound 31.6 µM): 64.2%
viability, T/C (second compound 0.949 µM, first compound 100 µM): 110%
viability, T/C [15]: 103%
viability, T/C [16]: 109%
viability, T/C [17]: 92.7%
viability, T/C [18]: 92%
viability, T/C (second compound 3 µM, first compound 31.6 µM): 88.4%
viability, T/C (second compound 3 µM, first compound 100 µM): 104%
viability, T/C [21]: 102%
viability, T/C [22]: 109%
viability, T/C [23]: 98.2%
viability, T/C [24]: 89.6%
viability, T/C (second compound 9.49 µM, first compound 31.6 µM): 68.6%
viability, T/C (second compound 9.49 µM, first compound 100 µM): 109%
viability, T/C [27]: 87.5%
viability, T/C [28]: 94.7%
viability, T/C [29]: 91.9%
viability, T/C [30]: 88.9%
viability, T/C (second compound 30 µM, first compound 31.6 µM): 25.6%
viability, T/C (second compound 30 µM, first compound 100 µM): 95.8%
